Measured values reported in patent publication US8921405B2, “Compounds” (Orexo AB, priority 2009, dated 2014).
pIC50: −log10 of the molar value.

Target: T1, recombinant human mPGES-1 (Homo sapiens, UniProt O14684)
T1 construct: made in house; host or cells: Rosetta E. coli (membrane/microsome fraction)
T1 sequence (O14684 1-152): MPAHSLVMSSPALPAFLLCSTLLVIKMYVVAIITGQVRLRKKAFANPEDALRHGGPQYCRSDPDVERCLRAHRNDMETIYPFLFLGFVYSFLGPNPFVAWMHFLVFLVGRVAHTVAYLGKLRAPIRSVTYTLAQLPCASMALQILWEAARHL
Assay: mPGES-1 HTRF assay (inhibition of PGE2 formation from PGH2)
Type: biochemical
Conditions: HTRF assay; for inhibition at 10 µM: compound concentration of 10 μM, read-out: % inhibition
Description: The basis of the assay used is to measure the inhibition of microsomal prostaglandin E2 synthase-1 (mPGES-1) dependent prostaglandin (PG) E2 formation from PGH2 by different compounds. Thus, the formation of PGE2 is used as signal and a lowering of this signal can be interpreted as inhibition of mPGES-1. […] Microsomes from Rosetta E. coli bacteria expressing recombinant human mPGES-1 can be derived as described below: Inoculate 5 ml LB with Amp and Chloro with bacteria from freeze culture. Incubate over night at 37° C. with 200 rpm. Thereafter, inoculate 500-800 ml LB containing Amp and Chloro with the 5 ml on culture and grow to OD640 of 0.6-0.8. Chill the culture to +4° C. before induction. Induce the culture with IPTG at a final concentration of 400 μM. Express the protein at room temp 18-23° C. with 200 rpm shaking over night. The following steps can be performed on the following day: • 1. Spin down the cells in 250 ml centrifuge flasks for 15 min at 7000 rpm • 2. Dissolve the pellet from 250 ml culture in 12.5 ml homogenization buffer • 3. Disintegrate the cells by sonication, 4×10 seconds at 35% amplitude • 4. Add 2.5 ml MgCl2 (100 mM) and DNase 12.5 μl (0.8 mg/ml) and incubate on ice for 30 min • 5. Spin down the bacteria debris and save the supernatant, 7000 rpm for 15 min • 6. Isolate the protein containing membranes in the supernatant by ultracentrifugation 45000×g for 1 hour. • 7. Discard the supernatant and dissolve the pellet in 20 mM KPi buffer and aliquot the enzyme and store aliquots at −80° C. Before each experiment is performed an aliquot of the enzyme is thawed and it can then be dissolved in 0.1 M KPi pH 7.4 buffer containing 2.5 mM GSH. 50 μl of this enzyme solution is subsequently dispensed in a 384-well plate at room temperature. 0.5 μl of the inhibitor dissolved in DMSO is thereafter added to each well and incubated for 25 minutes at room temperature. Subsequently, 2 μl of PGH2 dissolved in an appropriate solvent is added to each well and after one minute at room temperature, the acidified stop solution containing FeCl2 is added. 4 μl of the total volume is transferred to a separate plate and diluted 750-fold in two separate steps before quantification of PGE2. In order to quantitate the amount of PGE2 that has been formed, a homogenous time resolved fluorescent (HTRF) detection of PGE2 can be performed by the use of a commercially available kit from CisBio essentially according to the manufacturer's protocol. […] The sealing film is thereafter removed from the NC wells. • 5 μl Eu3+-cryptate labeled anti-PGE2 can now be added to rows 1 to 24 by using a Multidrop. • The plate can now be covered with sealing film. • The plate can now be centrifuge at 1200 rpm for 1 minute and place at 4° C. overnight. After the over night incubation the fluorescence is measured by the use of an appropriate microplate reader. […] The extent of the specific HTRF is measured as a ratio of the emission intensity at 665 nm vs. that at 620 nm. A standard curve using synthetic PGE2 is used to quantify the amount of PGE2 in unknown samples. The degree of inhibition can be calculated as percent inhibition by dividing the amount of PGE2 formed in unknown samples by the amount of PGE2 formed in control samples.

pIC50	inhibition at 10 µM	SMILES
8.40		CC(=O)NCc1ccc(Cl)c(Nc2nc3cc(C(=O)Nc4ccc(Br)cc4)c(OCC(F)F)cc3n2C)c1 [Example 79, N-(4-Bromo-phenyl)-2-(2-chloro-5-{[(methylcarbonyl)-amino]-methyl}-phenylamino)-6-(2,2-difluoro-ethoxy)-1-methyl-1H-benzimidazole-5-carboxylic acid amide]
8.40		Cn1c(Nc2cc(CNC(=O)C(C)(C)C(F)(F)F)ccc2Cl)nc2cc(C(=O)Nc3ccc(Br)cc3)c(OCC(F)F)cc21 [Example 77, N-(4-Bromo-phenyl)-2-(2-chloro-5-{[(1-methyl-1-trifluoromethyl-ethylcarbonyl)-amino]-methyl}-phenylamino)-6-(2,2-difluoro-ethoxy)-1-methyl-1H-benzimidazole-5-carboxylic acid amide]
9.00		Cn1c(Nc2cc(CNC(=O)C(C)(C)C)ccc2Cl)nc2cc(C(=O)NCC#Cc3ccccc3)c(OCC(F)F)cc21 [Example 90, N-(3-Phenylpropargyl)-2-(2-chloro-5-{[(tert-butylcarbonyl)-amino]-methyl}-phenylamino)-6-(2,2-difluoro-ethoxy)-1-methyl-1H-benzimidazole-5-carboxylic acid amide]
8.52		O=C(NCC1CC1)c1cc2nc(Nc3cc(CNC(=O)C4(C(F)(F)F)CC4)ccc3Cl)[nH]c2cc1OCC(F)F [Example 68, N-(Cyclopropylmethyl)-2-(2-chloro-5-[{(l-trifluoromethyl-cyclopropanecarbonyl)-amino]-methyl}-phenylamino)-6-(2,2-difluoro-ethoxy)-1H-benzimidazole-5-carboxylic acid amide]
8.70		Cn1c(Nc2cc(CNC(=O)C(C)(C)C)ccc2Cl)nc2cc(C(=O)NCC3CC3(C)C)c(OCC(F)F)cc21 (centres unmarked) [Example 88, N-(2,2-Dimethylcyclopropyl-methyl)-2-(2-chloro-5-{[(tert-butylcarbonyl)-amino]-methyl}-phenylamino)-6-(2,2-difluoro-ethoxy)-1-methyl-1H-benzimidazole-5-carboxylic acid amide]
8.52		Cn1c(Nc2cc(CNC(=O)C3(C(F)(F)F)CC3)ccc2C(F)(F)F)nc2cc(C(=O)Nc3ccc(Br)cc3)c(OCC(F)F)cc21 [Example 83, N-(4-Bromo-phenyl)-2-(2-trifluoromethyl-5-{[(1-trifluoromethyl-cyclopropanecarbonyl)-amino]-methyl}-phenylamino)-6-(2,2-difluoro-ethoxy)-1-methyl-1H-benzimidazole-5-carboxylic acid amide]
8.52		Cn1c(Nc2cc(CNC(=O)C(C)(N)C(F)(F)F)ccc2Cl)nc2cc(C(=O)Nc3ccc(Br)cc3)c(OCC(F)F)cc21 (centres unmarked) [Example 75, N-(4-Bromo-phenyl)-2-(2-chloro-5-{[(1-amino-1-trifluoromethyl-ethyl-carbonyl)-amino]-methyl}-phenylamino)-6-(2,2-difluoro-ethoxy)-1-methyl-1H-benzimidazole-5-carboxylic acid amide]
	98%	Cn1c(Nc2cc(CNC(=O)C3(C(F)(F)F)CC3)ccc2Cl)nc2cc(C(=O)NC3CCC(F)(F)CC3)ccc21 [Example 54, 2-{2-chloro-5-[(1-trifluoromethylcyclopropylamido)methyl]phenylamino}-N-(4,4-difluorocyclohexyl)-1-methylbenzimidazole-5-carboxamide]
	100%	Cn1c(Nc2cc(CNC(=O)C3(CC4CC4)CCCC3)ccc2Cl)nc2cc(C(=O)Nc3ccc(Br)cc3)ccc21 [Example 48, N-(4-Bromophenyl)-2-{2-chloro-5-[(1-cyclopropylmethylcyclopentyl-amido)methyl]phenylamino}-1-methylbenzimidazole-5-carboxamide]
8.30		CC(C)(C)C(=O)NCc1ccc(Cl)c(Nc2nc3cc(C(=O)Nc4ccc(Br)cc4)c(OCC(F)F)cc3n2CC(F)F)c1 [Example 100, N-(4-Bromo-phenyl)-2-(2-chloro-5-{[(tert-butylcarbonyl)-amino]-methyl}-phenylamino)-6-(2,2-difluoro-ethoxy)-1-(2,2-difluoroethyl)-1H-benzimidazole-5-carboxylic acid amide]
	68%	CN1CCCC1CCNC(=O)c1ccc2c(c1)nc(Nc1cc(CNC(=O)C3(C(F)(F)F)CC3)ccc1Cl)n2C (centres unmarked) [Example 55, 2-{2-chloro-5-[(1-trifluoromethylcyclopropylamido)methyl]phenylamino}-1-methyl-N-[2-(1-methyl-2-pyrrolidinyl)ethyl]benzimidazole-5-carboxamide]
	100%	Cn1c(Nc2cc(CNC(=O)C3(C)CCCC3)ccc2Cl)nc2cc(C(=O)Nc3ccc(Br)cc3)ccc21 [Example 41, N-(4-Bromophenyl)-2-{2-chloro-5-[(1-methylcyclopentylamido)methyl]-phenylamino}-1-methylbenzimidazole-5-carboxamide]

Continued, compound first:

SMILES	pIC50	inhibition at 10 µM
Cn1c(Nc2cc(CNC(=O)C3(C)CCCCC3)ccc2Cl)nc2cc(C(=O)NCc3ccccn3)ccc21 [Example 20, 2-{2-Chloro-5-[(1-methylcyclohexylamido)methyl]phenylamino}-1-methyl-N-(2-pyridinylmethyl)benzimidazole-5-carboxamide]		100%
Cn1c(Nc2cc(CNC(=O)C3(C)CCCCC3)ccc2Cl)nc2cc(C(=O)N3CCCC3)ccc21 [Example 12, N-{4-Chloro-3-[1-methyl-5-(1-pyrrolidinylcarbonyl)-2-benzimidazolylamino]benzyl}-1-methylcyclohexylamide]		100%
Cn1c(Nc2cc(CNC(=O)C3(C)CCCC3)ccc2Cl)nc2cc(C(=O)NCC3CCCCC3)ccc21 [Example 31, 2-{2-Chloro-5-[(1-methylcyclopentylamido)methyl]phenylamino}-N-cyclohexylmethyl-1-methylbenzimidazole-5-carboxamide]		99%
Cn1c(Nc2cc(CNC(=O)C3(C)CCCCC3)ccc2Cl)nc2cc(C(=O)NCC3CCCCC3)ccc21 [Example 16, 2-{2-Chloro-5-[(1-methylcyclohexylamido)methyl]phenylamino}-N-cyclohexylmethyl-1-methylbenzimidazole-5-carboxamide]		80%
Cn1c(Nc2cc(CNC(=O)C3(C)CCCCC3)ccc2Cl)nc2cc(S(=O)(=O)NC3CCCC3)ccc21 [Example 7, N-{4-Chloro-3-[5-(N-cyclopentylsulfamoyl)-1-methyl-2-benzimidazolylamino]benzyl}-1-methylcyclohexylamide]		98%
COc1cc2[nH]c(Nc3cc(CNC(=O)OC(C)(C)C)ccc3C(F)(F)F)nc2cc1C(=O)N[C@H]1CC[C@H](C(F)(F)F)CC1 [Example 91, 2-({5-[(tert.Butoxycarbonyl)amino]methyl}-2-trifluoromethyl-phenylamino)-6-methoxy-N-(trans-4-trifluoromethyl-cyclohex-1-yl)-1H-benzo[d]imidazole-5-carboxamide]	8.40	
CN(C1CCCC1)S(=O)(=O)c1ccc2c(c1)nc(Nc1cc(CNC(=O)C3(C)CCCCC3)ccc1Cl)n2C [Example 26, N-{4-Chloro-3-[5-(N-cyclopentyl-N-methylsulfamoyl)-1-methyl-2-benzimidazolylamino]benzyl}-1-methylcyclohexylamide]		100%
CN(C(=O)c1ccc2c(c1)nc(Nc1cc(CNC(=O)C3(C)CCCCC3)ccc1Cl)n2C)C1CCCC1 [Example 22, 2-{2-Chloro-5-[(1-methylcyclohexylamido)methyl]phenylamino}-N-cyclopentyl-N,1-dimethylbenzimidazole-5-carboxamide]		98%
